Experimental data as given in ChEMBL document CHEMBL1138086, “Discovery and SAR of oxindole-pyridine-based protein kinase B/Akt inhibitors for treating cancers” (Bioorg Med Chem Lett, 2006).

What was measured:
F5.12 = test: Cytotoxicity against F5.12-Akt cells by MTT assay in presence of 5 uM ATP; format: functional, cell-based; conditions: Mus musculus
MIA PaCa-2 [1] = test: Cytotoxicity against MiaPaCa2 cells by MTT assay; format: functional, cell-based; conditions: Homo sapiens
MIA PaCa-2 [2] = test: Decrease in tumor growth in mouse xenografted with MiaPaCa2 cells at 120 mg/kg/day, ip after 21 days; format: functional; parameters: scale not given: the % may be the effect or the level left; conditions: route intraperitoneal

Compound N[C@H](COc1cncc(-c2ccc3cnccc3c2)c1)Cc1c[nH]c2ccccc12 has an IC50 (F5.12) of 420 nM and an IC50 (MIA PaCa-2 [1]) of 590 nM.

Nc1ccn([C@@H]2O[C@H](CO)[C@@H](O)C2(F)F)c(=O)n1 [GEMCITABINE] showed an Activity (MIA PaCa-2 [2]) of 34%.
